Reference: US6358885B1, “Substituted phenylheterocyclic herbicides” (Mississippi State University, priority 1992, dated 2002)

Key:
Experiment in all cases: Test B preemergence/postemergence greenhouse plant response rating 0 to 10
Details in all cases: 0 to 10 scale
[1] = test system: soybean; assay type: in vivo, Glycine max
Summary of the method: (§1)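 Test chemicals, dissolved in a non-phytotoxic solvent, were applied to soil at planting and, at the same time, over foliage of seedlings at the one to four leaf stage.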

[2] = test system: bedstraw; assay type: in vivo, Galium aparine
Summary of the method: as §1

[3] = test system: barley; assay type: in vivo, Hordeum vulgare
Summary of the method: as §1

[4] = test system: chickweed; assay type: in vivo, Stellaria media
Summary of the method: as §1

[5] = test system: rice; assay type: in vivo, Oryza sativa
Summary of the method: as §1

[6] = test system: purple nutsedge; assay type: in vivo, Cyperus rotundus
Summary of the method: as §1

[7] = test system: lambsquarters; assay type: in vivo, Chenopodium album
Summary of the method: as §1

[8] = test system: blackgrass; assay type: in vivo, Alopecurus myosuroides
Summary of the method: as §1

[9] = test system: wild oat; assay type: in vivo, Avena fatua
Summary of the method: as §1

[10] = test system: sugar beet; assay type: in vivo, Beta vulgaris
Summary of the method: as §1

[11] = test system: sorghum; assay type: in vivo, Sorghum bicolor
Summary of the method: as §1

[12] = test system: cocklebur; assay type: in vivo, Xanthium pensylvanicum
Summary of the method: as §1

[13] = test system: wild buckwheat; assay type: in vivo, Polygonum convolvulus
Summary of the method: as §1

[14] = test system: barnyardgrass; assay type: in vivo, Echinochloa crus-galli
Summary of the method: as §1

[15] = test system: rape; assay type: in vivo, Brassica napus
Summary of the method: as §1

[16] = test system: corn; assay type: in vivo, Zea mays
Summary of the method: as §1

[17] = test system: velvetleaf; assay type: in vivo, Abutilon theophrasti
Summary of the method: as §1

[18] = test system: wheat; assay type: in vivo, Triticum aestivum
Summary of the method: as §1

[19] = test system: cheatgrass; assay type: in vivo, Bromus secalinus
Summary of the method: as §1

[20] = test system: cotton; assay type: in vivo, Gossypium hirsutum
Summary of the method: as §1

[21] = test system: morningglory; assay type: in vivo, Ipomoea hederacea
Summary of the method: as §1

[22] = test system: crabgrass; assay type: in vivo, Digitaria spp.
Summary of the method: as §1

[23] = test system: giant foxtail; assay type: in vivo, Setaria faberii
Summary of the method: as §1

Structure (SMILES): C=CCOC(=O)COc1cc(-c2nn3c(c2Cl)CCCC3)c(F)cc1Cl [Compound 62]
- Plant response rating, Soybean ([1]; POSTEMERGENCE, Rate 10 g/ha): 2
- Plant response rating, Soybean ([1]; POSTEMERGENCE, Rate 50 g/ha): 8
- Plant response rating, Soybean ([1]; PREEMERGENCE, Rate 50 g/ha): 0
- Plant response rating, Bedstraw ([2]; POSTEMERGENCE, Rate 10 g/ha): 8
- Plant response rating, Bedstraw ([2]; POSTEMERGENCE, Rate 50 g/ha): 9
- Plant response rating, Bedstraw ([2]; PREEMERGENCE, Rate 10 g/ha): 7
- Plant response rating, Bedstraw ([2]; PREEMERGENCE, Rate 50 g/ha): 7
- Plant response rating, Barley ([3]; POSTEMERGENCE, Rate 10 g/ha): 1
- Plant response rating, Barley ([3]; POSTEMERGENCE, Rate 50 g/ha): 1
- Plant response rating, Barley ([3]; PREEMERGENCE, Rate 10 g/ha): 0
- Plant response rating, Barley ([3]; PREEMERGENCE, Rate 50 g/ha): 0
- Plant response rating, Chickweed ([4]; POSTEMERGENCE, Rate 10 g/ha): 0
- Plant response rating, Chickweed ([4]; POSTEMERGENCE, Rate 50 g/ha): 3
- Plant response rating, Chickweed ([4]; PREEMERGENCE, Rate 50 g/ha): 0
- Plant response rating, Rice ([5]; POSTEMERGENCE, Rate 10 g/ha): 3
- Plant response rating, Rice ([5]; POSTEMERGENCE, Rate 50 g/ha): 3
- Plant response rating, Rice ([5]; PREEMERGENCE, Rate 50 g/ha): 0
- Plant response rating, Nutsedge ([6]; POSTEMERGENCE, Rate 10 g/ha): 0
- Plant response rating, Nutsedge ([6]; POSTEMERGENCE, Rate 50 g/ha): 0
- Plant response rating, Nutsedge ([6]; PREEMERGENCE, Rate 50 g/ha): 0
- Plant response rating, Lambsquarter ([7]; POSTEMERGENCE, Rate 10 g/ha): 8
- Plant response rating, Lambsquarter ([7]; POSTEMERGENCE, Rate 50 g/ha): 9
- Plant response rating, Lambsquarter ([7]; PREEMERGENCE, Rate 50 g/ha): 9
- Plant response rating, Blackgrass ([8]; POSTEMERGENCE, Rate 10 g/ha): 1
- Plant response rating, Blackgrass ([8]; POSTEMERGENCE, Rate 50 g/ha): 2
- Plant response rating, Blackgrass ([8]; PREEMERGENCE, Rate 10 g/ha): 0
- Plant response rating, Blackgrass ([8]; PREEMERGENCE, Rate 50 g/ha): 0
- Plant response rating, Wild oat ([9]; POSTEMERGENCE, Rate 10 g/ha): 1
- Plant response rating, Wild oat ([9]; POSTEMERGENCE, Rate 50 g/ha): 2
- Plant response rating, Wild oat ([9]; PREEMERGENCE, Rate 50 g/ha): 0
- Plant response rating, Sugar beet ([10]; POSTEMERGENCE, Rate 10 g/ha): 10
- Plant response rating, Sugar beet ([10]; POSTEMERGENCE, Rate 50 g/ha): 10
- Plant response rating, Sugar beet ([10]; PREEMERGENCE, Rate 50 g/ha): 10
- Plant response rating, Sorghum ([11]; POSTEMERGENCE, Rate 10 g/ha): 2
- Plant response rating, Sorghum ([11]; POSTEMERGENCE, Rate 50 g/ha): 2
- Plant response rating, Sorghum ([11]; PREEMERGENCE, Rate 50 g/ha): 0
- Plant response rating, Cocklebur ([12]; POSTEMERGENCE, Rate 10 g/ha): 5
- Plant response rating, Cocklebur ([12]; POSTEMERGENCE, Rate 50 g/ha): 9
- Plant response rating, Cocklebur ([12]; PREEMERGENCE, Rate 10 g/ha): 0
- Plant response rating, Cocklebur ([12]; PREEMERGENCE, Rate 50 g/ha): 0
- Plant response rating, Wild buckwheat ([13]; POSTEMERGENCE, Rate 10 g/ha): 2
- Plant response rating, Wild buckwheat ([13]; POSTEMERGENCE, Rate 50 g/ha): 10
- Plant response rating, Wild buckwheat ([13]; PREEMERGENCE, Rate 50 g/ha): 0
- Plant response rating, Barnyardgrass ([14]; POSTEMERGENCE, Rate 10 g/ha): 2
- Plant response rating, Barnyardgrass ([14]; POSTEMERGENCE, Rate 50 g/ha): 3
- Plant response rating, Barnyardgrass ([14]; PREEMERGENCE, Rate 10 g/ha): 0
- Plant response rating, Barnyardgrass ([14]; PREEMERGENCE, Rate 50 g/ha): 0
- Plant response rating, Rape ([15]; POSTEMERGENCE, Rate 10 g/ha): 1
- Plant response rating, Rape ([15]; POSTEMERGENCE, Rate 50 g/ha): 6
- Plant response rating, Rape ([15]; PREEMERGENCE, Rate 50 g/ha): 0
- Plant response rating, Corn ([16]; POSTEMERGENCE, Rate 10 g/ha): 2
- Plant response rating, Corn ([16]; POSTEMERGENCE, Rate 50 g/ha): 5
- Plant response rating, Corn ([16]; PREEMERGENCE, Rate 50 g/ha): 0
- Plant response rating, Velvetleaf ([17]; POSTEMERGENCE, Rate 10 g/ha): 7
- Plant response rating, Velvetleaf ([17]; POSTEMERGENCE, Rate 50 g/ha): 10
- Plant response rating, Velvetleaf ([17]; PREEMERGENCE, Rate 50 g/ha): 2
- Plant response rating, Wheat ([18]; POSTEMERGENCE, Rate 10 g/ha): 2
- Plant response rating, Wheat ([18]; POSTEMERGENCE, Rate 50 g/ha): 2
- Plant response rating, Wheat ([18]; PREEMERGENCE, Rate 50 g/ha): 2
- Plant response rating, Cheatgrass ([19]; POSTEMERGENCE, Rate 10 g/ha): 1
- Plant response rating, Cheatgrass ([19]; POSTEMERGENCE, Rate 50 g/ha): 2
- Plant response rating, Cheatgrass ([19]; PREEMERGENCE, Rate 10 g/ha): 0
- Plant response rating, Cheatgrass ([19]; PREEMERGENCE, Rate 50 g/ha): 0
- Plant response rating, Cotton ([20]; POSTEMERGENCE, Rate 10 g/ha): 10
- Plant response rating, Cotton ([20]; POSTEMERGENCE, Rate 50 g/ha): 10
- Plant response rating, Cotton ([20]; PREEMERGENCE, Rate 10 g/ha): 0
- Plant response rating, Cotton ([20]; PREEMERGENCE, Rate 50 g/ha): 0
- Plant response rating, Morningglory ([21]; POSTEMERGENCE, Rate 10 g/ha): 6
- Plant response rating, Morningglory ([21]; POSTEMERGENCE, Rate 50 g/ha): 9
- Plant response rating, Morningglory ([21]; PREEMERGENCE, Rate 50 g/ha): 0
- Plant response rating, Crabgrass ([22]; POSTEMERGENCE, Rate 10 g/ha): 1
- Plant response rating, Crabgrass ([22]; POSTEMERGENCE, Rate 50 g/ha): 2
- Plant response rating, Crabgrass ([22]; PREEMERGENCE, Rate 10 g/ha): 0
- Plant response rating, Crabgrass ([22]; PREEMERGENCE, Rate 50 g/ha): 0
- Plant response rating, Giant foxtail ([23]; POSTEMERGENCE, Rate 10 g/ha): 1
- Plant response rating, Giant foxtail ([23]; POSTEMERGENCE, Rate 50 g/ha): 3
- Plant response rating, Giant foxtail ([23]; PREEMERGENCE, Rate 10 g/ha): 0
- Plant response rating, Giant foxtail ([23]; PREEMERGENCE, Rate 50 g/ha): 0
